One series concerns the target T1, SARS-CoV-2 PLpro (Severe acute respiratory syndrome coronavirus 2, UniProt P0DTD1).
T1 construct: containing 60 nM papain-like protease
As to the kind of experiment: biochemical.

In series [1] the test system is human Hep G2 cells (ATCC HB-8065). As to the kind of experiment: Cytotoxicity in Hep G2 cells (CellTiter-Glo). Type of series: cell-based.
Where [2] appears, read: 60 nM papain-like protease, 50 μM Z-RLRGG-AMC, pH 7.5, 37° C., read-out: SARS-CoV-2 PLpro IC50.
The mark [3] stands for this setting: Hep G2 cells, 100 μM test article, 24-hour exposure.

Experimental findings from US20240383852A1, “ANTI-VIRAL COMPOUNDS” (INFEX Therapeutics Limited, priority 2021, published 2024) are described below.

Counter-ions that a name gives are not always drawn. Like-named read-outs stand apart in the source and are kept apart here.

For `COc1cc(-c2cn(C)nc2C)cc([C@@H](C)NC(=O)c2cc(N3CCNC4(CC4)C3)ccc2C)c1` [Example 267, 5-(4,7-Diazaspiro[2.5]octan-7-yl)-N-[(1R)-1-[3-(1,3-dimethylpyrazol-4-yl)-5-methoxy-phenyl]ethyl]-2-methyl-benzamide], the IC50 at SARS-CoV-2 PLpro (setting [2]) is under 2000 nM. The “% Cell Viability” value in series [1] (setting [3]) is reported as 81.0%.
Taken in the same sequence, the figures for `Cc1ccc(N2CCN(C)C(C)C2)cc1C(=O)N[C@H](C)c1cccc2ccccc12` (stereo partly drawn) [Example 126, 5-(3,4-Dimethylpiperazin-1-yl)-2-methyl-N-[(1R)-1-(1-naphthyl)ethyl]benzamide] were under 2000 nM and 62.8%.
Taken in the same sequence, the figures for `Cc1ccc(N2CCN(C)CC2)cc1C(=O)N[C@H](C)c1cccc(-c2ccc(C(O)CO)cc2)c1` (stereo partly drawn) [Example 70, N-[(1R)-1-[3-[4-(1,2-Dihydroxyethyl)phenyl]phenyl]ethyl]-2-methyl-5-(4-methylpiperazin-1-yl)benzamide] were under 2000 nM and 59.1%.
The like results for `Cc1ccc(N2CCN(C)CC2)cc1C(=O)N[C@H](C)c1cccc(-c2cccc(C(=O)NCCO)c2)c1` [Example 97, N-[(1R)-1-[3-[3-(2-Hydroxyethylcarbamoyl)phenyl]phenyl]ethyl]-2-methyl-5-(4-methylpiperazin-1-yl)benzamide] were, in that order, under 2000 nM and 72.1%.
`Cc1ccc(N2CCN(C)CC2)cc1C(=O)N[C@H](C)c1cccc(-c2cccc(CCO)c2)c1` [Example 44, N-[(1R)-1-[3-[3-(2-Hydroxyethyl)phenyl]phenyl]ethyl]-2-methyl-5-(4-methylpiperazin-1-yl)benzamide]: the IC50 on SARS-CoV-2 PLpro (setting [2]) was under 2000 nM. Further, in series [1] (setting [3]), the “% Cell Viability” value is given as 61.0%.
Taken in the same sequence, the figures for `COc1ccc([C@@H](C)NC(=O)c2cc(N3CCC4(CC3)CNC4)ccc2C)cc1-c1cnn(C)c1` [Example 259, 5-(2,7-Diazaspiro[3.5]nonan-7-yl)-N-[(1R)-1-[4-methoxy-3-(1-methylpyrazol-4-yl)phenyl]ethyl]-2-methyl-benzamide] were under 2000 nM and 111.1%.
In the case of `Cc1nnc(-c2cccc([C@@H](C)NC(=O)c3cc(N4CCN(C)CC4)ccc3C)c2)s1` [Example 39, 2-Methyl-5-(4-methylpiperazin-1-yl)-N-[(1R)-1-[3-(5-methyl-1,3,4-thiadiazol-2-yl)phenyl]ethyl]benzamide], the IC50 at SARS-CoV-2 PLpro (setting [2]) was under 2000 nM. Also, the “% Cell Viability” value in series [1] (setting [3]) came to 90.5%.
Consider `Cc1ccc(N2CCN(C)CC2)cc1C(=O)N[C@H](C)c1ccc(OC(F)(F)F)c(-c2cnn(C)c2)c1` [Example 222, 2-Methyl-5-(4-methylpiperazin-1-yl)-N-[(1R)-1-[3-(1-methylpyrazol-4-yl)-4-(trifluoromethoxy)phenyl]ethyl]benzamide], for which the IC50 at SARS-CoV-2 PLpro (setting [2]) was under 2000 nM. Further, the “% Cell Viability” value in series [1] (setting [3]) amounted to 7.4%.
Turning to `Cc1ccc(N2CCN(C)CC2)cc1C(=O)N[C@H](C)c1cccc(-c2cccc(C(=O)N(C)CCN(C)C)c2)c1` [Example 86, N-[(1R)-1-[3-[3-[2-(Dimethylamino)ethyl-methyl-carbamoyl]phenyl]phenyl]ethyl]-2-methyl-5-(4-methylpiperazin-1-yl)benzamide], the IC50 on SARS-CoV-2 PLpro (setting [2]) was under 2000 nM. The “% Cell Viability” value in series [1] (setting [3]) stood at 72.1%.
The like results for `Cc1ccc(N2CCN(C)CC2)cc1C(=O)N[C@H](C)c1ccc(OC(F)(F)F)c(Br)c1` [Example 190, N-[(1R)-1-[3-Bromo-4-(trifluoromethoxy)phenyl]ethyl]-2-methyl-5-(4-methylpiperazin-1-yl)benzamide] were, in that order, under 5000 nM and 0.9%.
The like results for `Cc1ccc(N2CCN(C)CC2)cc1C(=O)N[C@H](C)c1cccc(-c2cccc(N3CCNCC3)c2)c1` [Example 74, 2-Methyl-5-(4-methylpiperazin-1-yl)-N-[(1R)-1-[3-(3-piperazin-1-ylphenyl)phenyl]ethyl]benzamide] were, in that order, under 2000 nM and 0.6%.
The like results for `COc1ccc([C@@H](C)NC(=O)c2cc(N3CCN(C)CC3)ccc2C)cc1-c1csc(C(=O)N(C)C)c1` [Example 285, 4-[2-Methoxy-5-[(1R)-1-[[2-methyl-5-(4-methylpiperazin-1-yl)benzoyl]amino]ethyl]phenyl]-N,N-dimethyl-thiophene-2-carboxamide] were, in that order, under 2000 nM and 72.2%.
As to `C[C@@H](NC(=O)c1cc(C2=CCNC2)ccc1Cl)c1cccc2ccccc12` [Example 146, 2-Chloro-5-(2,5-dihydro-1H-pyrrol-3-yl)-N-[(1R)-1-(1-naphthyl)ethyl]benzamide Hydrochloride Salt], on SARS-CoV-2 PLpro (setting [2]), the IC50 was under 2000 nM. Also, the “% Cell Viability” value in series [1] (setting [3]) came to 0.2%.
Taken in the same sequence, the figures for `Cc1ccc(N2CCN(C)CC2)cc1C(=O)N[C@H](C)c1cccc(N2CC(CO)OC2=O)c1` (stereo partly drawn) [Example 107, N-[(1R)-1-[3-[5-(Hydroxymethyl)-2-oxo-oxazolidin-3-yl]phenyl]ethyl]-2-methyl-5-(4-methylpiperazin-1-yl)benzamide] were under 5000 nM and 100.7%.
Taken in the same sequence, the figures for `Cc1ccc(N2CCN(C)CC2)cc1C(=O)N[C@H](C)c1cccc(-c2cccc(C(=O)N3CCOCC3)c2)c1` [Example 92, 2-Methyl-5-(4-methylpiperazin-1-yl)-N-[(1R)-1-[3-[3-(morpholine-4-carbonyl)phenyl]phenyl]ethyl]benzamide] were under 2000 nM and 76.9%.
Taken in the same sequence, the figures for `COc1cc(Br)cc([C@@H](C)NC(=O)c2cc(N3CCN(C)CC3)ccc2C)c1` [Example 186, N-[(1R)-1-(3-Bromo-5-methoxy-phenyl)ethyl]-2-methyl-5-(4-methylpiperazin-1-yl)benzamide] were under 2000 nM and 1.0%.
On to `Cc1ccc(N2CCN(C)CC2)cc1C(=O)N[C@H](C)c1ccc(F)c(Br)c1` [Example 187, N-[(1R)-1-(3-Bromo-4-fluoro-phenyl)ethyl]-2-methyl-5-(4-methylpiperazin-1-yl)benzamide], for which the IC50 at SARS-CoV-2 PLpro (setting [2]) is under 2000 nM. Moreover, the “% Cell Viability” value in series [1] (setting [3]) is given as 44.0%.
Taken in the same sequence, the figures for `Cc1ccc(N2CCN(C)CC2)cc1C(=O)N[C@H](C)c1ccc(OC(C)C)c(-c2cnn(C)c2)c1` [Example 250, N-[(1R)-1-[4-isopropoxy-3-(1-methylpyrazol-4-yl)phenyl]ethyl]-2-methyl-5-(4-methylpiperazin-1-yl)benzamide] were under 2000 nM and 93.0%.
Taken in the same sequence, the figures for `Cc1ccc(N2CCN(C)CC2)cc1C(=O)N[C@H](C)c1cccc(C#CCO)c1` [Example 315, N-[(1R)-1-[3-(3-Hydroxyprop-1-ynyl)phenyl]ethyl]-2-methyl-5-(4-methylpiperazin-1-yl)benzamide] were under 5000 nM and 122.7%.
The like results for `Cc1ccc(N2CCN(C)CC2)cc1C(=O)N[C@H](C)c1cccc(Br)c1` [Example 22, N-[(1R)-1-(3-Bromophenyl)ethyl]-2-methyl-5-(4-methylpiperazin-1-yl)benzamide] were, in that order, under 5000 nM and 65.5%.
On to `COc1ccc([C@@H](C)NC(=O)c2cc(N3CCNC4(CC4)C3)ccc2C)cc1-c1cnn(C)c1` [Example 241, 5-(4,7-Diazaspiro[2.5]octan-7-yl)-N-[(1R)-1-[4-methoxy-3-(1-methylpyrazol-4-yl)phenyl]ethyl]-2-methyl-benzamide], for which, on SARS-CoV-2 PLpro (setting [2]), the IC50 was under 5000 nM. For the same compound, the “% Cell Viability” value in series [1] (setting [3]) worked out at 84.2%.
Taken in the same sequence, the figures for `C[C@@H]1CN(c2ccc(Cl)c(C(=O)N[C@H](C)c3cccc4ccccc34)c2)C[C@H](C)N1` [Example 133, 2-Chloro-5-[(3S,5R)-3,5-dimethylpiperazin-1-yl]-N-[(1R)-1-(1-naphthyl)ethyl]benzamide] were under 5000 nM and 0.1%.
For `Cc1ccc(N2CCN(C3COC3)CC2)cc1C(=O)N[C@H](C)c1cccc2ccccc12` [Example 117, 2-Methyl-N-[(1R)-1-(1-naphthyl)ethyl]-5-[4-(oxetan-3-yl)piperazin-1-yl]benzamide], the IC50 at SARS-CoV-2 PLpro (setting [2]) is under 5000 nM. Besides, in series [1] (setting [3]), the “% Cell Viability” value was determined as 61.1%.
In the case of `COc1cc([C@@H](C)NC(=O)c2cc(N3C[C@H]4CC[C@@H](C3)N4)ccc2C)ccc1OCC1CC1` [Example 298, N-[(1R)-1-[4-(Cyclopropylmethoxy)-3-methoxy-phenyl]ethyl]-5-[(1R,5S)-3,8-diazabicyclo[3.2.1]octan-3-yl]-2-methyl-benzamide], on SARS-CoV-2 PLpro, the IC50 was under 2000 nM. For the same compound, in series [1] (human, 24 h, 100 μM), the “% Cell Viability” value came to 43.9%.
As for `Cc1ccc(N2CCN(C)CC2)cc1C(=O)N[C@H](C)c1cccc(-c2ccc(=O)n(C)c2)c1` [Example 48, 2-Methyl-N-[(1R)-1-[3-(1-methyl-6-oxo-3-pyridyl)phenyl]ethyl]-5-(4-methylpiperazin-1-yl)benzamide], the IC50 at SARS-CoV-2 PLpro (setting [2]) was under 5000 nM. Moreover, the “% Cell Viability” value in series [1] (setting [3]) was determined as 63.6%.
The like results for `COc1ccc([C@@H](C)NC(=O)c2cc(N3CCN(C)CC3)ccc2C)cc1-c1ccn(C)n1` [Example 207, N-[(1R)-1-[4-Methoxy-3-(1-methylpyrazol-3-yl)phenyl]ethyl]-2-methyl-5-(4-methylpiperazin-1-yl)benzamide] were, in that order, under 2000 nM and 103.7%.
Take `Cc1ccc(N2CCN(C)CC2)cc1C(=O)N[C@H](C)c1cccc(-c2cccc(C(N)=O)c2)c1` [Example 43, N-[(1R)-1-[3-(3-Carbamoylphenyl)phenyl]ethyl]-2-methyl-5-(4-methylpiperazin-1-yl)benzamide]: the IC50 at SARS-CoV-2 PLpro (setting [2]) was under 2000 nM. In addition, the “% Cell Viability” value in series [1] (setting [3]) is 71.3%.
Regarding `Cc1ccc(N2CCNCC2)cc1C(=O)N[C@H](C)c1cccc2ccccc12` [Example 108, 2-Methyl-N-[(1R)-1-(1-naphthyl)ethyl]-5-piperazin-1-yl-benzamide], the IC50 at SARS-CoV-2 PLpro (setting [2]) was under 2000 nM. Also, the “% Cell Viability” value in series [1] (setting [3]) was found to be 2.1%.
